Experimental data as given in patent US20220348590A1, “CYCLOOXYGENASE-2 INHIBITORS AND USES THEREOF” (The Board Institute, Inc., priority 2019, published 2022).
Where two headings read alike, the source gives them in different places.

What was measured:
[1] = target: T1, human recombinant COX2 (hCOX2) (UniProt P35354); assay: LCMS-based COX2 enzymatic inhibition assay (PGE2 quantification); format: biochemical; parameters: COX2 2 minutes pge2/pge2d4 area ratio Avg; other: 2 minutes; readout pge2/pge2d4 area ratio; average; COX2 2 minutes pge2/pge2d4 area ratio Avg; LLE; average LLE; COX2 2 minutes pge2 area (counts) Avg; readout pge2 area (counts); other: 2 min; "ovine COX2 (oCOX2), human recombinant COX2 (hCOX2)"; settings: for IC50: average
T1 sequence (P35354 1-604): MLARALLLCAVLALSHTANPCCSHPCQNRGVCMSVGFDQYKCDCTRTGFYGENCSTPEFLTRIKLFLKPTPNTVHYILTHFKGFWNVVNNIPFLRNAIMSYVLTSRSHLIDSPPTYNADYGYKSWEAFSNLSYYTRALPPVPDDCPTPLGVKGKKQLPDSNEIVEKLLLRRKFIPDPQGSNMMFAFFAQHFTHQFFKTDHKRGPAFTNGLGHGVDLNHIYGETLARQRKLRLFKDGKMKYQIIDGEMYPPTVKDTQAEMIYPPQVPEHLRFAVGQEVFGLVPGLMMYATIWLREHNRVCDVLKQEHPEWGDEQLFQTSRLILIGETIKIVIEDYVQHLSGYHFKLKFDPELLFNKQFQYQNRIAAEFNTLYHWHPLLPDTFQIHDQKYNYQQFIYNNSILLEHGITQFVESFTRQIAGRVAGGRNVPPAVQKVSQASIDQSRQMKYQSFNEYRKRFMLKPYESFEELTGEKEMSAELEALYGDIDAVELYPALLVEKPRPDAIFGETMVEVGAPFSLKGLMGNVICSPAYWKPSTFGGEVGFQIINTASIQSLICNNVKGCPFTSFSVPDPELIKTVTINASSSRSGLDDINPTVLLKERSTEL
Procedure, shortened: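 PGE2 formed from arachidonic acid (final 5 μM, 2 min) was measured by LC-MS-MS against DMSO controls. Enzyme (oCOX-1 0.1 μg or hCOX2 0.2 μg) with hematin/epinephrine cofactors at pH 8.0 was given 10 min at 37 °C with compound first. Twelve-point curves run three times gave IC50.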

ovine COX-1 (oCOX-1) = target: T2, ovine COX-1 (oCOX-1) (Ovis aries, UniProt P05979); assay: LCMS-based COX-1 enzymatic inhibition assay (PGE2 quantification); format: biochemical
T2 construct: purchased Cayman Chemicals (Ann Arbor, Mich.)
T2 sequence (P05979 25-600): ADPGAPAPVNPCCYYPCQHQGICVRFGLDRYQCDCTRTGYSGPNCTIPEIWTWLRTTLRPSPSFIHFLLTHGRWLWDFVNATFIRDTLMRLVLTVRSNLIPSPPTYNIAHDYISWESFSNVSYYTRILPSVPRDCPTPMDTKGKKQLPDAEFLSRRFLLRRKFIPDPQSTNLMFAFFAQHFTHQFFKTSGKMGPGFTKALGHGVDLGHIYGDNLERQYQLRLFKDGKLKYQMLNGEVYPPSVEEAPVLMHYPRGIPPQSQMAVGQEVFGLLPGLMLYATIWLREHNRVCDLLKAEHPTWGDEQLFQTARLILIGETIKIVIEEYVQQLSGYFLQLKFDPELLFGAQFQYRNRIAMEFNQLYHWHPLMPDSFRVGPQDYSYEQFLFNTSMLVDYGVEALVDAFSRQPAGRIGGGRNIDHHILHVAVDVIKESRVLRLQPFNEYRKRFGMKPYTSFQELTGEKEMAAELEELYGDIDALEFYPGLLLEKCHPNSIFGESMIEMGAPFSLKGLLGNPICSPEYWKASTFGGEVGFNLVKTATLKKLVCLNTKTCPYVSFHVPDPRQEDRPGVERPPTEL
Method: We have adapted a previously reported cyclooxygenase enzymatic assay utilizing LCMS quantification of PGE2 as the product of COX-1 and COX2 catalyzed conversion of arachidonic acid to evaluate the binding properties of newly synthesized ligands [Cao, 2011]. These optimized and miniaturized (384-well plates) LCMS-based COX-1 and COX2 enzymatic assays enabled us to quickly evaluate newly synthesized ligands for COX2 binding affinity and selectivity vs COX-1. Using a shorter ligand-enzyme incubation time in the LCMS assay (2 minutes vs 10 minutes) also permitted us to prioritize ligands with faster binding kinetics. Considering the relatively slow on-rate kinetics of known coxibs, due to their 3-step binding mechanism [Marnett, 2009], we believe that optimizing this critical parameter will be key to the successful development of a COX2 PET tracer. Using these enzymatic assays, we have evaluated>200 newly synthesized ligands against COX2 and >20 ligands against COX-1. Another critical property necessary for a good PET radiotracer is to have low non-specific binding (NSB) to increase the free fraction and maximize the signal to noise ratio. This property can be evaluated using in-vitro protein binding assays, and we have now evaluated>50 newly synthesized ligands in mouse, rat and human plasma protein binding (PPB) assays as well as >15 ligands in a mouse brain protein binding (BPB) assay.
Ovine COX-1 (oCOX-1), ovine COX2 (oCOX2), human recombinant COX2 (hCOX2), arachidonic acid, PGE2, d4-PGD2, and […] (labeled with deuterium atoms at positions 3 and 4) were purchased from Cayman Chemicals (Ann Arbor, Mich.). The cofactors (−)epinephrine and hematin, and the COX inhibitors indomethacin, resveratrol and diclofenac were purchased from Sigma-Aldrich (St. Louis, Mo.). Celecoxib was purchased from 3B PharmaChem International (Wuhan, China). All organic solvents were HPLC grade or better and were purchased from Thermo Fisher (Hanover Park, Ill.). Formic acid was purchased from EMD Chemicals (San Diego, Calif.). Purified water was prepared by using a Millipore Milli-Q purification system (Millipore, Billerica, Mass.). All other chemicals and solvents were ACS reagent grade, unless stated otherwise.
In an Eppendorf tube, 146 μL of 100 mM Tris.HCl (pH 8.0) buffer, 2 μL of 100 μM hematin (co-factor) and 10 μL of 40 mM L-epinephrine (co-factor) were mixed at room temperature. Next, 20 μL of Tris.HCl (pH 8.0) buffer containing 0.2 μg COX2 or 0.1 μg COX-1 (approximately 1 unit of enzyme; 1 unit COX utilizes 1 nmol 02/mg/min at 37° C.) was added, and the solution was incubated at room temperature for 2 min. A 2 μL aliquot of the COX inhibitor in DMSO was added to the enzyme solution and preincubated at 37° C. for 10 min. Negative controls were identical except that 2 μL aliquots of DMSO without inhibitor were used instead.
Each COX reaction was initiated by adding 20 μL of arachidonic acid in Tris.HCl (pH 8.0) buffer to give a final concentration of 5 μM; and the reaction was terminated after 2 min by adding 20 μL of 2.0 M HCl. The surrogate standards d4-PGE2 and d4-PGD2 (10 μL aliquot of 50 ng/mL solution in methanol) were added to correct for errors or degradation during sample handling and for variation in injection volume or instrument response during LC-MS-MS. After 30 min, PGE2, PGD2 and their surrogate standards were extracted from each incubation mixture using 800 μL hexane/ethyl acetate (50:50, v/v). The organic phase was removed, evaporated to dryness, and reconstituted in 100 μL methanol/water (50:50, v/v) for analysis using LC-MS-MS.
The concentration of PGE2 in each sample was measured using LC-MS-MS, and the percent of COX inhibition by each test solution was determined by comparing the amount of PGE2 produced in the experiment with that produced in the negative control incubation. The formation of PGD2 was measured for quality control purposes, since the levels of PGD2 should be proportional to those of PGE2. […]

[2] = 2 minutes, readout pge2/pge2d4 area ratio, average LLE
[3] = 2 minutes, readout pge2/pge2d4 area ratio, read-out: COX2 2 minutes pge2/pge2d4 area ratio Avg. IC50
[4] = 2 minutes, readout pge2 area (counts), average LLE
[5] = 2 minutes, readout pge2 area (counts), read-out: COX2 2 minutes pge2 area (counts) Avg. IC50
[6] = 10 minutes, pge2/pge2d4 area ratio, head of this section not shown, inferred
[7] = 10 minutes, readout pge2/pge2d4 area ratio, average, read-out: COX1 10 minutes pge2/pge2d4 area ratio Avg. IC50
[8] = 10 minutes, readout pge2 area (counts), average LLE
[9] = 10 minutes, pge2 area (counts), head of this section not shown, inferred
[10] = 10 minutes, pge2 area (counts), head of this section not shown, inferred, read-out: COX1 10 minutes pge2 area (counts) Avg. IC50
[11] = 10 minutes, readout pge2/pge2d4 area ratio, average LLE
[12] = 10 minutes, readout pge2 area (counts), average, read-out: COX1 10 minutes pge2 area (counts) Avg. IC50

COX2 2 minutes pge2/pge2d4 area ratio Avg. LLE [1, 2] | IC50 [1, 3] [nM] | COX2 2 minutes pge2 area (counts) Avg. LLE [1, 4] | IC50 [1, 5] [nM] | IC50 (ovine COX-1 (oCOX-1); [7]) [nM] | COX2 10 minutes pge2 area (counts) Avg. LLE [1, 8] | IC50 ([1]; 10 minutes, readout pge2 area (counts), read-out: COX2 10 minutes pge2 area (counts) Avg. IC50) [nM] | COX1 10 minutes pge2/pge2d4 area ratio Avg. LLE (ovine COX-1 (oCOX-1); [11]) | COX1 10 minutes pge2 area (counts) Avg. LLE (ovine COX-1 (oCOX-1); [8]) | IC50 (ovine COX-1 (oCOX-1); [12]) [nM] | Structure (SMILES) | COX1 10 minutes pge2/pge2d4 area ratio Avg. LLE (ovine COX-1 (oCOX-1); [6]) | IC50 (ovine COX-1 (oCOX-1)) [nM] | COX1 10 minutes pge2 area (counts) Avg. LLE (ovine COX-1 (oCOX-1); [9]) | IC50 (ovine COX-1 (oCOX-1); [10]) [nM]
3.165 | 41.2 | 3.167 | 41.6 | 49300 | – | – | – | – | – | CS(=O)(=O)c1ccc(-c2ncc3ccn(Cc4cccs4)c3n2)cc1 [Compound 71] | 0.04679 | – | – | –
5.017 | 69 | 5.139 | 55.8 | – | 5.9924 | 6.85 | – | – | – | CS(=O)(=O)c1ccc(-c2cncc(NCc3ccccc3)n2)cc1 [Compound 93] | – | – | 2.104 | –
4.786 | 71 | 4.818 | 69.9 | 10200 | – | – | – | – | – | CS(=O)(=O)c1ccc(-c2cnc3cnn(Cc4cccs4)c3n2)cc1 [Compound 94] | 2.552 | – | 2.532 | 10700
3.668 | 15 | 3.685 | 12.2 | 42800 | – | – | 0.1181 | 0.2149 | 34300 | CS(=O)(=O)c1ccc(-c2cccc(OCc3ccc(F)s3)n2)cc1 [Compound 30] | – | – | – | –
5.4246 | 8.12 | 5.349 | 9.54 | 5850 | – | – | 2.513 | 2.529 | 5640 | Cc1csc(COc2cncc(-c3ccc(S(C)(=O)=O)cc3)n2)c1 [Compound 10] | – | – | – | –
5.142 | 18.4 | 5.088 | 20.6 | 699 | – | – | 3.526 | 3.306 | 1230 | Cc1ncc(-c2ccc(S(C)(=O)=O)cc2)nc1OCc1cccs1 [Compound 38] | – | – | – | –
3.551 | 19.5 | 3.78 | 6.71 | 36200 | – | – | 0.01187 | −0.01745 | 38700 | CS(=O)(=O)c1ccc(-c2cccc(NCc3cccs3)c2)cc1 [Compound 42] | – | – | – | –
5.065 | 157 | 5.129 | 131 | – | – | – | – | – | – | CS(=O)(=O)c1ccc(-c2cncc(SCc3ccccn3)n2)cc1 [Compound 131] | – | – | – | –

Structure (SMILES) | COX2 2 minutes pge2/pge2d4 area ratio Avg. LLE [1, 2] | IC50 [1, 3] [nM] | COX2 2 minutes pge2 area (counts) Avg. LLE [1, 4] | IC50 [1, 5] [nM] | IC50 (ovine COX-1 (oCOX-1); [7]) [nM] | COX2 10 minutes pge2 area (counts) Avg. LLE [1, 8] | IC50 ([1]; 10 minutes, readout pge2 area (counts), read-out: COX2 10 minutes pge2 area (counts) Avg. IC50) [nM] | COX1 10 minutes pge2/pge2d4 area ratio Avg. LLE (ovine COX-1 (oCOX-1); [11]) | COX1 10 minutes pge2 area (counts) Avg. LLE (ovine COX-1 (oCOX-1); [8]) | IC50 (ovine COX-1 (oCOX-1); [12]) [nM] | COX1 10 minutes pge2/pge2d4 area ratio Avg. LLE (ovine COX-1 (oCOX-1); [6]) | IC50 (ovine COX-1 (oCOX-1)) [nM] | COX1 10 minutes pge2 area (counts) Avg. LLE (ovine COX-1 (oCOX-1); [9]) | IC50 (ovine COX-1 (oCOX-1); [10]) [nM]
CS(=O)(=O)c1ccc(-c2coc3ccc(NCc4cccs4)nc23)cc1 [Compound 39] | – | 18.6 | – | 18.4 | – | – | – | – | – | – | – | 52000 | – | –
COc1ncc(NCc2ccccc2)nc1-c1ccc(S(C)(=O)=O)cc1 [Compound 49] | 5.235 | 22.2 | 5.228 | 21 | – | – | – | 1.734 | 1.734 | – | – | 52000 | – | –
CS(=O)(=O)c1ccc(-c2ccc3ccn(Cc4ccco4)c3n2)cc1 [Compound 61] | 3.446 | 33.3 | 3.403 | 37 | – | – | – | – | – | – | 0.214 | 52000 | 0.214 | –
COc1ccc(NCc2ccoc2)nc1-c1ccc(S(C)(=O)=O)cc1 [Compound 66] | 4.554 | 37.3 | 4.505 | 42 | – | – | – | – | – | – | 1.364 | 52000 | 1.364 | –
CS(=O)(=O)c1ccc(-c2cncc(/C=C\c3cccs3)n2)cc1 [Compound 65] | 4.704 | 37 | 4.681 | 39 | – | – | – | – | – | – | 1.544 | 52000 | 1.612 | 38000
